# Measurements reported in US9943522B2, “Use of cathepsin K inhibition for the treatment and/or prophylaxis of pulmonary hypertension and/or heart failure” (BAYER INTELLECTUAL PROPERTY GMBH, priority 2011, dated 2018).
# Legend:
# [1] = tested on: hypoxia-induced pulmonary hypertension in the guinea pig; assay: Hypoxia-induced pulmonary hypertension in the guinea pig: right ventricular hypertrophy (RV/LV+S); assay type: in vivo
# Description: Chronic hypoxia is a literature described and accepted animal model for pulmonary hypertension and is described for different species (Am J Physiol Lung Cell Mol Physiol 297: L1013-L1032, 2009; J Pharmacol Sci 107, 8-14 (2008); Pharmacology & Therapeutics 92 (2001) 1-20). Acute hypoxia increases pulmonary arterial pressure through pulmonary arterial constriction. Chronic hypoxia causes more severe pulmonary hypertension through vascular architectural changes and an increase of hematocrit (Hct) in the blood. […]
# The CTSK inhibitor Odanacatib was tested in a guinea pig model for pulmonary hypertension as described in the examples section. […] The heart was dissected, and the ratio of the right ventricle to left ventricle plus septum weight (RV/LV+S) was calculated as an index of right ventricular hypertrophy. The right ventricle was snap-frozen on dry ice for RNA extraction and quantitative real-time polymerase chain reaction. […]
# (§1) Male Dunkin Hartley guinea pigs weighing approximately 250 g were randomized to three different treatment groups (n=7-8 animals/group; control+placebo, hypoxia+placebo, hypoxia+Odanacatib). […] The heart was dissected, and the ratio of the right ventricle to left ventricle plus septum weight (RV/LV+S) was calculated as an index of right ventricular hypertrophy. […]
# ANP = assay: Relative expression of ANP in heart right ventricle, hypoxia-induced pulmonary hypertension model (TaqMan RT-PCR); assay type: in vivo, guinea pig; conditions: hypoxia 28 days, Odanacatib infusion, compared to placebo group; FIG. 2
# Experimental: (§2) To analyse the disease state of the animals and determine the efficacy of Odanacatib treatment, the expression of marker genes were performed. […] Due to the known correlation of increased ANP levels and disease stage in heart failure patients and animal models, the increased expression of […] seems to be correlated with pulmonary hypertension.
# (§3) Guinea pig or dog tissues were pulverized by grinding with liquid nitrogen. Total RNA was extracted, DNase I digestion was performed to remove residual genomic DNA and the RNA were reverse transcribed using random hexomer primers. Quantitative TaqMan RT-PCR analysis was performed using the Applied Biosystems PRISM 7900 sequence detection system. […] Results were normalized to L32 (dog) or b-actin (guinea pig) controls, and relative expression was calculated according to the following formula: relative expression=2(20-(CT(probe)-CT(L32/b-actin))). […]
# as §1, with “hypertrophy. The right ventricle was snap-frozen on dry ice for RNA extraction and quantitative real-time polymerase chain reaction.” for “hypertrophy.”
# LTBP2 = assay: Relative expression of LTBP2 in heart right ventricle, hypoxia-induced pulmonary hypertension model (TaqMan RT-PCR); assay type: in vivo, guinea pig; conditions: hypoxia 28 days, Odanacatib infusion, compared to placebo group; FIG. 3
# Experimental: as §2, §3
# For relative quantitation of the mRNA distribution of LTBP2, total RNA from each sample was first reverse transcribed. […]
# For relative quantitation of the distribution of LTBP2 mRNA the Applied Bioscience ABI 7900HT Sequence Detection system was used according to the manufacturer's specifications and protocols.
# PCR reactions were set up to quantitate LTBP2 and the housekeeping gene b-actin. […]
# CTSK = assay: Relative expression of CTSK in heart right ventricle, hypoxia-induced pulmonary hypertension model (TaqMan RT-PCR); assay type: in vivo, guinea pig; conditions: hypoxia 28 days, Odanacatib infusion, compared to placebo group; FIG. 4
# Experimental: as §2, §3
# as §1, with “hypertrophy. The right ventricle was snap-frozen on dry ice for RNA extraction and quantitative real-time polymerase chain reaction.” for “hypertrophy.”
structure (smiles),measurement,setting,value
CC(C)(F)C[C@H](N[C@@H](c1ccc(-c2ccc(S(C)(=O)=O)cc2)cc1)C(F)(F)F)C(=O)NC1(C#N)CC1 [Odanacatib],ratio of the right ventricle to left ventricle plus septum weight (RV/LV+S),"[1]; Mean±SEM, normobaric hypoxia (10% O2) 28 days, continuous infusion by osmotic minipump day 0-28, hypoxic placebo 0.37±0.01, normoxic control 0.28±0.01",0.30±0.01
same,right ventricle weight,"[1]; hypoxia-induced pulmonary hypertension animals, compared to placebo treated animals",reduction of right ventricle weight
same,expression of ANP in heart (right ventricle) under hypoxia,ANP,markedly decreased expression
same,expression of LTBP2 in heart (right ventricle) under hypoxia,LTBP2,markedly decreased expression
same,expression of CTSK in heart (right ventricle) under hypoxia,CTSK,markedly decreased expression
